The subject of assay [1] is H1 human embryonic stem cells. Put plainly: Screen of CDK, GSK3 and TRK inhibitors with or without GDF-8, SOX17 and cell number (Example 20, Table 17). The following applies: Plate 1; for Cell Number, % of positive control / Sox17 Expression, % of positive control: positive control = Activin A/Wnt3a. The assay is classed as cell-based. How it is done:
Briefly, clusters of H1 human embryonic stem cells were grown on reduced growth factor Matrigel™ (Invitrogen; Cat #356231) coated tissue culture plastic. Cells were passaged using collagenase (Invitrogen; Cat #17104-019) treatment and gentle scraping, washed to remove residual enzyme, and plated with even dispersal at a ratio of 1:1 (surface area) on reduced growth factor […]™ (BD Biosciences; Cat #356231)-coated 96-well black plates (Packard ViewPlates; PerkinElmer; Cat #6005182) using volumes of 100 μl/well. Cells were allowed to attach and then recover log phase growth over a 1 to 3 day time period, feeding daily with MEF conditioned medium supplemented with 8 ng/ml bFGF (R&D Systems; Cat #233-FB). Plates were maintained at 37° C., 5% CO2 in a humidified box throughout the duration of assay.
Screening was conducted using the compounds described in Table 16. […] Compounds were made available as 5 mM stocks in 96-well plate format, solubilized in 100% DMSO (Sigma; Cat #D2650) and stored at −80° C. The library compounds were further diluted to an intermediate concentration of 0.2 mM in 50 mM HEPES (Invitrogen; Cat #15630-080), 20% DMSO and stored at 4° C. Test conditions were performed in triplicate, feeding on alternating days over a four-day assay period. Assay was initiated by aspirating culture medium from each well followed by three washes in PBS (Invitrogen; Cat #14190) to remove residual growth factors. On the first day of assay, test volumes of 200 μl per well were added to each well using DMEM:F12 base medium (Invitrogen; Cat #11330-032) supplemented with 0.5% FCS (HyClone; Cat #SH30070.03) and 100 ng/ml GDF-8 (R&D Systems, Cat #788-G8) plus 2.5 μM compound. A parallel set of test samples were treated in an identical manner but omitting GDF-8 from the medium. On the third day of assay, test volumes of 100 μper well were added to each well using DMEM:F12 base medium supplemented with 2% FCS plus 100 ng/ml GDF-8 (R&D Systems, Cat #788-G8). […] Positive control samples contained the same base medium supplemented with FCS and 100 ng/ml recombinant human activin A (PeproTech; Cat #120-14) throughout the four day assay along with Wnt3a (20 ng/ml) addition on days 1 and 2. Negative control samples contained DMEM:F12 base medium supplemented with FCS.
At the conclusion of four-days of culture, assay plates were washed twice with PBS (Invitrogen; Cat #14190), fixed with 4% paraformaldehyde (Alexis Biochemical; Cat #ALX-350-011) at room temperature for 20 minutes, then washed three times with PBS and permeabilized with 0.5% Triton X-100 (Sigma; Cat #T8760-2) for 20 minutes at room temperature. Cells were washed again three times with PBS and blocked with 4% chicken serum (Invitrogen; Cat #16110082) in PBS for 30 minutes at room temperature. Primary antibody (goat anti-human SOX17; R&D Systems; Cat #AF1924) was diluted 1:100 in 4% chicken serum and added to each well for one hour at room temperature. Alexa Fluor 488 conjugated secondary antibody (chicken anti-goat IgG; Molecular Probes; Cat #AZ1467) was diluted 1:200 in PBS and added to each sample well after washing three times with PBS. To counterstain nuclei, 4 μg/ml Hoechst 33342 (Invitrogen; Cat #H3570) was added for ten minutes at room temperature. Plates were washed once with PBS and left in 100 μl/well PBS for imaging.
Imaging was performed using an IN Cell Analyzer 1000 (GE Healthcare) utilizing the 51008bs dichroic for cells stained with Hoechst 33342 and Alexa Fluor 488. Exposure times were optimized from positive control wells and from untreated negative control wells stained with secondary antibody alone. Images from 15 fields per well were acquired to compensate for any cell loss during the bioassay and subsequent staining procedures. Measurements for total cell number and total SOX17 intensity were obtained from each well using IN Cell Developer Toolbox 1.7 (GE Healthcare) software. […]

Assay [2] concerns CDK, GSK3, and/or TRK signaling pathways. Put plainly: Primary selectivity of the proprietary small molecules (Table 16). The conditions noted are these: as listed in Table 17. On the procedure:
A subset of 14 proprietary small molecules, known to have specificity for the CDK, GSK3, and/or TRK signaling pathways were evaluated for their potential to differentiate human embryonic stem cells to cells expressing markers characteristic of the definitive endoderm lineage.

[3] abbreviates: compound in combination with GDF8.

Molecules are shown by their SMILES.

For `O=C(O)c1ccc(Nc2ncc3nnn(-c4cccc(F)c4)c3n2)cc1` [Compound 6], in assay [1] (compound alone, No GDF8), the “Cell Number, Average Total Cell Number” value is 14827; the “Sox17 Expression, Average Total Intensity” value was −1.8E+05; the “Cell Number, % of positive control” value was 102.4 % of positive control; the “Sox17 Expression, % of positive control” value is −0.1 % of positive control. Further, in assay [1] (setting [3]), the “Cell Number, Average Total Cell Number” value is given as 5118; the “Sox17 Expression, Average Total Intensity” value came to 5.8E+07; the “Cell Number, % of positive control” value is recorded as 35.4 % of positive control; the “Sox17 Expression, % of positive control” value was 25.2 % of positive control. Moreover, the “Compound Selectivity” value in assay [2] is recorded as “Selective for GSK”.

For the compound `O=C(O)c1cc(Nc2ncc3nnn(-c4ccccc4)c3n2)ccc1F` [Compound 7, 2-Fluoro-5-[(3-phenyl-3H-[1,2,3]triazolo[4,5-d]pyrimidin-5-yl)amino]benzoic acid], in assay [1] (compound alone, No GDF8), the “Cell Number, Average Total Cell Number” value is on record as 3; the “Sox17 Expression, Average Total Intensity” value is reported as −1.4E+06; the “Cell Number, % of positive control” value is recorded as 0.0 % of positive control; the “Sox17 Expression, % of positive control” value is −0.6 % of positive control. In assay [1] (setting [3]), the “Cell Number, Average Total Cell Number” value was found to be 5296; the “Sox17 Expression, Average Total Intensity” value turned out to be 7.0E+07; the “Cell Number, % of positive control” value was 36.6 % of positive control; the “Sox17 Expression, % of positive control” value was 30.4 % of positive control. In addition, the “Compound Selectivity” value in assay [2] (GDF8 treatment) is reported as “Selective for GSK”. For the same compound, in assay [2] (No GDF8 treatment), the “Compound Selectivity” value is “Selective for CDK”.

For the compound `Nc1nccc(-c2cccc(Nc3ncc4nnn(-c5cccc(CNC(=O)C6CC6)c5)c4n3)c2)n1` [Compound 8, N-{[3-(5-{[3-(2-Aminopyrimidin-4-yl)phenyl]amino}-3H-1-[1,2,3]triazolo[4,5-d]pyrimidin-3-yl)phenyl]methyl}cyclopropanecarboxamide], in assay [1] (compound alone, No GDF8), the “Cell Number, Average Total Cell Number” value is listed as 13235; the “Sox17 Expression, Average Total Intensity” value turned out to be 3.8E+05; the “Cell Number, % of positive control” value is 91.4 % of positive control; the “Sox17 Expression, % of positive control” value is recorded as 0.2 % of positive control. In addition, in assay [1] (setting [3]), the “Cell Number, Average Total Cell Number” value is listed as 5018; the “Sox17 Expression, Average Total Intensity” value is 4.7E+07; the “Cell Number, % of positive control” value is reported as 34.7 % of positive control; the “Sox17 Expression, % of positive control” value was 20.4 % of positive control. Also, in assay [2], the “Compound Selectivity” value is recorded as “Selective for GSK”.

As for `COCCCNS(=O)(=O)c1ccc(Nc2ncc3cnn(C4CCCCC4)c3n2)cc1` [Compound 9, 4-[(1-Cyclohexyl-1H-pyrazolo[3,4-d]pyrimidin-6-yl)amino]-N-[3-(methyloxy)propyl]benzenesulfonamide], in assay [1] (compound alone, No GDF8), the “Cell Number, Average Total Cell Number” value is recorded as 7156; the “Sox17 Expression, Average Total Intensity” value is given as −4.2E+04; the “Cell Number, % of positive control” value is reported as 49.4 % of positive control; the “Sox17 Expression, % of positive control” value is 0.0 % of positive control. Also, in assay [1] (setting [3]), the “Cell Number, Average Total Cell Number” value is 4816; the “Sox17 Expression, Average Total Intensity” value turned out to be 4.5E+07; the “Cell Number, % of positive control” value is 33.3 % of positive control; the “Sox17 Expression, % of positive control” value is listed as 19.4 % of positive control. Further, the “Compound Selectivity” value in assay [2] is reported as “Selective for CDK”.

Regarding `COc1ccc(Nc2cc(Nc3cc(Cl)ccc3O)ncn2)cc1CCl` [Compound 10, 4-Chloro-2-[(6-{[3-(chloromethyl)-4-methoxyphenyl]amino}pyrimidin-4-yl)amino]phenol], in assay [1] (compound alone, No GDF8), the “Cell Number, Average Total Cell Number” value worked out at 7011; the “Sox17 Expression, Average Total Intensity” value was −6.6E+05; the “Cell Number, % of positive control” value was 48.4 % of positive control; the “Sox17 Expression, % of positive control” value is on record as −0.3 % of positive control. In assay [1] (setting [3]), the “Cell Number, Average Total Cell Number” value is listed as 4627; the “Sox17 Expression, Average Total Intensity” value is on record as 6.6E+07; the “Cell Number, % of positive control” value is reported as 32.0 % of positive control; the “Sox17 Expression, % of positive control” value is 28.6 % of positive control. Besides, the “Compound Selectivity” value in assay [2] was “Selective for CDK”.

Regarding `CN1CCC(NC(=O)c2ccc(Nc3nccc(N4CCN(C)c5ccccc54)n3)cc2)CC1` [Compound 11, 4-{[4-(4-Methyl-3,4-dihydroquinoxalin-1(2H)-yl)pyrimidin-2-yl]amino}-N-(1-methylpiperidin-4-yl)benzamide], in assay [1] (compound alone, No GDF8), the “Cell Number, Average Total Cell Number” value is on record as 565; the “Sox17 Expression, Average Total Intensity” value is given as −1.1E+06; the “Cell Number, % of positive control” value is reported as 3.9 % of positive control; the “Sox17 Expression, % of positive control” value is recorded as −0.5 % of positive control. For the same compound, in assay [1] (setting [3]), the “Cell Number, Average Total Cell Number” value came to 210; the “Sox17 Expression, Average Total Intensity” value was −4.9E+05; the “Cell Number, % of positive control” value was 1.4 % of positive control; the “Sox17 Expression, % of positive control” value is on record as −0.2 % of positive control. The “Compound Selectivity” value in assay [2] is recorded as “Selective for CDK”.

Turning to `COCCCNCc1ccc(Nc2nccc(-c3c[nH]c4ncccc34)n2)c(OC)c1` [Compound 12, N-(2-Methoxy-4-{[(3-methoxypropyl)amino]methyl}phenyl)-4-(1H-pyrrolo[2,3-b]pyridin-3-yl)pyrimidin-2-amine], in assay [1] (compound alone, No GDF8), the “Cell Number, Average Total Cell Number” value was 13124; the “Sox17 Expression, Average Total Intensity” value is listed as −2.3E+05; the “Cell Number, % of positive control” value was 90.7 % of positive control; the “Sox17 Expression, % of positive control” value is −0.1 % of positive control. Besides, in assay [1] (setting [3]), the “Cell Number, Average Total Cell Number” value came to 31; the “Sox17 Expression, Average Total Intensity” value is given as −1.3E+06; the “Cell Number, % of positive control” value is 0.2 % of positive control; the “Sox17 Expression, % of positive control” value is reported as −0.6 % of positive control. Besides, in assay [2] (GDF8 treatment), the “Compound Selectivity” value was “Selective for CDK”. Further, in assay [2] (No GDF8 treatment), the “Compound Selectivity” value was “Selective for GSK”.

Take `N#Cc1cnc2nc1Nc1cccc(c1)OCCNC(=O)c1cccc(c1)N2` [Compound 41, 18-Oxo-14-oxa-2,4,8,17,25-pentaazatetracyclo[17.3.1.1˜3,7˜0.1˜9,13˜]pentacosa-1(23), 3(25), 4,6,9(24), 10,12,19,21-nonaene-6-carbonitrile]: in assay [1] (compound alone, No GDF8), the “Cell Number, Average Total Cell Number” value amounted to 9995; the “Sox17 Expression, Average Total Intensity” value came to 5.9E+04; the “Cell Number, % of positive control” value was 69.0 % of positive control; the “Sox17 Expression, % of positive control” value is reported as 0.0 % of positive control. In addition, in assay [1] (setting [3]), the “Cell Number, Average Total Cell Number” value came out at 4455; the “Sox17 Expression, Average Total Intensity” value turned out to be 3.4E+07; the “Cell Number, % of positive control” value is on record as 30.8 % of positive control; the “Sox17 Expression, % of positive control” value was 14.8 % of positive control. In addition, in assay [2], the “Compound Selectivity” value is given as “Selective for GSK”.
